Experimental data reported in patent US20240415819A1, “MACROCYCLIC COMPOUNDS AS PROTEASOME SUBUNIT BETA TYPE-5 INHIBITORS” (Lead Discovery Center GmbH, priority 2021, published 2024).

Legend:
[1] = biological target: T1, β5 subunit of the human constitutive proteasome (CPS) (Homo sapiens, UniProt P28074); assay: β5 inhibition assay, human constitutive proteasome (Suc-LLVY-AMC); format: biochemical; details: IC50 class, Suc-LLVY-AMC substrate
T1 construct: purchased Boston Biochem E-360
Experimental: The enzymatic activity of the β5 subunit of the human constitutive proteasome (CPS) is analyzed. In another assay, which differs from the assay of the human constitutive proteasome only in using the human immunoproteasome (IPS) the enzymatic activity of the β5 subunit of the human immunoproteasome (IPS) is analyzed. […] Inhibition is indicated as IC50 [nM] (“-”=not measured).

hPMBC = assay: Chymotrypsin-like ProteasomeGlo assay in hPBMC; format: cell-based; details: Homo sapiens; read-out: Pglo hPBMC
Summary of the method: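 IC50 derived from luminescent chymotrypsin-like proteasome activity (Suc-LLVY-Glo substrate plus luciferin detection reagent). Measured after 105 min compound exposure at 37 °C, 5% CO2. Cells were human B cells purified from buffy-coat PBMC.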

## CCOC(=O)N[C@H]1CC(=O)N2CCCC(CCOc3ccc(C)c(c3)CNC(=O)C(c3cnn(C)c3)NC1=O)C2 (stereo partly drawn) [Compound 363, Ethyl ((12S)-5^4-methyl-9-(1-methyl-1H-pyrazol-4-yl)-8,11,14-trioxo-4-oxa-7,10-diaza-1(3,1)-piperidina-5(1,3)-benzenacyclotetradecaphane-12-yl)carbamate]
[1]
  IC50: < 100 nM
hPMBC
  IC50: < 100 nM

## CC(=O)N[C@H]1CC(=O)N2CCCC(CCOc3cccc(c3)CNC(=O)[C@H](CCc3ccccc3)NC1=O)C2 (stereo partly drawn) [Compound 364, N-((9S,12S)-8,11,14-trioxo-9-phenethyl-4-oxa-7,10-diaza-1(3,1)-piperidina-5(1,3)-benzenacyclotetradecaphane-12-yl)acetamide]
[1]
  IC50: < 100 nM
hPMBC
  IC50: < 100 nM

## Cc1ccc2cc1CNC(=O)C(CCc1cnccn1)NC(=O)[C@@H](NC(=O)C1(c3ccc(N)cc3)CC1)CC(=O)N1CCCC(CCO2)C1 (stereo partly drawn) [Compound 371, 1-(4-aminophenyl)-N-((9S,12S)-5^4-methyl-8,11,14-trioxo-9-(2-(pyrazin-2-yl)ethyl)-4-oxa-7,10-diaza-1(3,1)-piperidina-5(1,3)-benzenacyclotetradecaphane-12-yl)cyclopropane-1-carboxamide]
[1]
  IC50: < 100 nM
hPMBC
  IC50: < 100 nM

## Cc1ccc2cc1CNC(=O)C(CCc1cnccn1)NC(=O)[C@@H](NC(=O)Cc1ccc(N)cc1F)CC(=O)N1CCCC(CCO2)C1 (stereo partly drawn) [Compound 372, 2-(4-amino-2-fluorophenyl)-N-((9S,12S)-5^4-methyl-8,11,14-trioxo-9-(2-(pyrazin-2-yl)ethyl)-4-oxa-7,10-diaza-1(3,1)-piperidina-5(1,3)-benzenacyclotetradecaphane-12-yl) acetamide]
[1]
  IC50: < 100 nM
hPMBC
  IC50: < 100 nM

## Cc1ccc2cc1CNC(=O)[C@H](CCc1ccccc1)NC(=O)[C@@H](NC(=O)Cc1ccccc1C)CC(=O)N1CCCC(CCO2)C1 (stereo partly drawn) [Compound 373, N-((9S,12S)-5^4-methyl-8,11,14-trioxo-9-phenethyl-4-oxa-7,10-diaza-1(3,1)-piperidina-5(1,3)-benzenacyclotetradecaphane-12-yl)-2-(o-tolyl)acetamide]
[1]
  IC50: < 100 nM
hPMBC
  IC50: < 100 nM

## Cc1ccc2cc1CNC(=O)C(CCc1ccccc1)NC(=O)[C@@H](NC(=O)OCc1ccccc1)CC(=O)N1CCCC(CCO2)C1 (stereo partly drawn) [Compound 503, benzyl ((12S)-9-phenethyl-5^4-methyl-8,11,14-trioxo-4-oxa-7,10-diaza-1(3,1)-piperidina-5(1,3)-benzenacyclotetradecaphane-12-yl)carbamate]
[1]
  IC50: < 100 nM
hPMBC
  IC50: 100 to 500 nM

## Cc1ccc2cc1CNC(=O)C(CCc1cnc3nccnc3c1)NC(=O)[C@@H](NC(=O)OCc1ccccc1)CC(=O)N1CCCC(CCO2)C1 (stereo partly drawn) [Compound 505, benzyl ((12S)-5^4-methyl-8,11,14-trioxo-9-(2-(pyrido[2,3-b]pyrazin-7-yl)ethyl)-4-oxa-7,10-diaza-1(3,1)-piperidina-5(1,3)-benzenacyclotetradecaphane-12-yl)carbamate]
[1]
  IC50: < 100 nM
hPMBC
  IC50: 100 to 500 nM

## Cc1ccc2cc1CNC(=O)C(CCc1ccc(S(=O)(=O)O)cc1)NC(=O)[C@@H](NC(=O)OCc1ccccc1)CC(=O)N1CCCC(CCO2)C1 (stereo partly drawn) [Compound 509, 4-(2-((12S)-12-(((benzyloxy)carbonyl)amino)-5^4-methyl-8,11,14-trioxo-4-oxa-7,10-diaza-1(3,1)-piperidina-5(1,3)-benzenacyclotetradecaphane-9-yl)ethyl)benzenesulfonic acid]
[1]
  IC50: < 100 nM
hPMBC
  IC50: 100 to 500 nM

## Cc1ccc2cc1CNC(=O)C(CCc1ccc(C3(C)COC3)cc1)NC(=O)[C@@H](NC(=O)OCc1ccccc1)CC(=O)N1CCCC(CCO2)C1 (stereo partly drawn) [Compound 510, benzyl ((12S)-5^4-methyl-9-(4-(3-methyloxetan-3-yl)phenethyl)-8,11,14-trioxo-4-oxa-7,10-diaza-1(3,1)-piperidina-5(1,3)-benzenacyclotetradecaphane-12-yl)carbamate]
[1]
  IC50: < 100 nM
hPMBC
  IC50: < 100 nM

## Cc1ccc2cc1CNC(=O)C(CCc1cnc3cccnc3c1)NC(=O)[C@@H](NC(=O)OCc1ccccc1)CC(=O)N1CCCC(CCO2)C1 (stereo partly drawn) [Compound 511, benzyl ((12S)-9-(2-(1,5-naphthyridin-3-yl)ethyl)-5^4-methyl-8,11,14-trioxo-4-oxa-7,10-diaza-1(3,1)-piperidina-5(1,3)-benzenacyclotetradecaphane-12-yl)carbamate]
[1]
  IC50: < 100 nM
hPMBC
  IC50: < 100 nM

## Cc1nc(C2NC(=O)[C@@H](NC(=O)OCc3ccccc3)CC(=O)N3CCCC(CCOc4ccc(C)c(c4)CNC2=O)C3)co1 (stereo partly drawn) [Compound 512, benzyl ((12S)-5^4-methyl-9-(2-methyloxazol-4-yl)-8,11,14-trioxo-4-oxa-7,10-diaza-1(3,1)-piperidina-5(1,3)-benzenacyclotetradecaphane-12-yl)carbamate]
[1]
  IC50: < 100 nM
hPMBC
  IC50: < 100 nM

## COC(=O)N(CC1NC(=O)[C@@H](NC(=O)OCc2ccccc2)CC(=O)N2CCCC(CCOc3ccc(C)c(c3)CNC1=O)C2)c1ccccc1 (stereo partly drawn) [Compound 513, methyl (((12R)-12-(((benzyloxy)carbonyl)amino)-5^4-methyl-8,11,14-trioxo-4-oxa-7,10-diaza-1(3,1)-piperidina-5(1,3)-benzenacyclotetradecaphane-9-yl)methyl)(phenyl)carbamate]
[1]
  IC50: < 100 nM
hPMBC
  IC50: < 100 nM

## CC(=O)N[C@H]1CC(=O)N2CCCC(CCOc3ccc(C)c(c3)CNC(=O)C(CCc3cccnc3)NC1=O)C2 (stereo partly drawn) [Compound 549, N-((12S)-5^4-methyl-8,11,14-trioxo-9-(2-(pyridin-3-yl)ethyl)-4-oxa-7,10-diaza-1(3,1)-piperidina-5(1,3)-benzenacyclotetradecaphane-12-yl)acetamide]
[1]
  IC50: < 100 nM
hPMBC
  IC50: < 100 nM

## CC(=O)N[C@H]1CC(=O)N2CCCC(CCOc3ccc(C)c(c3)CNC(=O)C(CCc3ccncc3)NC1=O)C2 (stereo partly drawn) [Compound 551, N-((12S)-5^4-methyl-8,11,14-trioxo-9-(2-(pyridin-4-yl)ethyl)-4-oxa-7,10-diaza-1(3,1)-piperidina-5(1,3)-benzenacyclotetradecaphane-12-yl)acetamide]
[1]
  IC50: < 100 nM
hPMBC
  IC50: < 100 nM

## CC(=O)N[C@H]1CC(=O)N2CCCC(CCOc3ccc(C)c(c3)CNC(=O)C(c3cnn(C)c3)NC1=O)C2 (stereo partly drawn) [Compound 552, N-((12S)-5^4-methyl-9-(1-methyl-1H-pyrazol-4-yl)-8,11,14-trioxo-4-oxa-7,10-diaza-1(3,1)-piperidina-5(1,3)-benzenacyclotetradecaphane-12-yl)acetamide]
[1]
  IC50: < 100 nM
hPMBC
  IC50: < 100 nM

## CC(=O)N[C@H]1CC(=O)N2CCCC(CCOc3ccc(C)c(c3)CNC(=O)C(c3coc(C)n3)NC1=O)C2 (stereo partly drawn) [Compound 553, N-((12S)-5^4-methyl-9-(2-methyloxazol-4-yl)-8,11,14-trioxo-4-oxa-7,10-diaza-1(3,1)-piperidina-5(1,3)-benzenacyclotetradecaphane-12-yl)acetamide]
[1]
  IC50: < 100 nM
hPMBC
  IC50: < 100 nM

## CC(=O)N[C@H]1CC(=O)N2CCCC(CCOc3ccc(C)c(c3)CNC(=O)C(c3ccc4ncccc4c3)NC1=O)C2 (stereo partly drawn) [Compound 554, N-((12S)-5^4-methyl-8,11,14-trioxo-9-(quinolin-6-yl)-4-oxa-7,10-diaza-1(3,1)-piperidina-5(1,3)-benzenacyclotetradecaphane-12-yl)acetamide]
[1]
  IC50: < 100 nM
hPMBC
  IC50: 100 to 500 nM

## CC(=O)N[C@H]1CC(=O)N2CCCC(CCOc3ccc(C)c(c3)CNC(=O)C(Cn3c(=O)oc4ccccc43)NC1=O)C2 (stereo partly drawn) [Compound 555, N-((12S)-5^4-methyl-8,11,14-trioxo-9-((2-oxobenzo[d]oxazol-3(2H)-yl)methyl)-4-oxa-7,10-diaza-1(3,1)-piperidina-5(1,3)-benzenacyclotetradecaphane-12-yl)acetamide]
[1]
  IC50: < 100 nM
hPMBC
  IC50: < 100 nM

## CC(=O)N[C@H]1CC(=O)N2CCCC(CCOc3ccc(C)c(c3)CNC(=O)C(c3cc(C)sn3)NC1=O)C2 (stereo partly drawn) [Compound 556, N-((12S)-5^4-methyl-9-(5-methylisothiazol-3-yl)-8,11,14-trioxo-4-oxa-7,10-diaza-1(3,1)-piperidina-5(1,3)-benzenacyclotetradecaphane-12-yl)acetamide]
[1]
  IC50: < 100 nM
hPMBC
  IC50: < 100 nM

## CC(=O)N[C@H]1CC(=O)N2CCCC(CCOc3ccc(C)c(c3)CNC(=O)C(c3cn(C)cn3)NC1=O)C2 (stereo partly drawn) [Compound 557, N-((12S)-5^4-methyl-9-(1-methyl-1H-imidazol-4-yl)-8,11,14-trioxo-4-oxa-7,10-diaza-1(3,1)-piperidina-5(1,3)-benzenacyclotetradecaphane-12-yl)acetamide]
[1]
  IC50: < 100 nM
hPMBC
  IC50: < 100 nM

## CC(=O)N[C@H]1CC(=O)N2CCCC(CCOc3ccc(C)c(c3)CNC(=O)C(Cc3ccccc3)NC1=O)C2 (stereo partly drawn) [Compound 558, N-((12S)-9-benzyl-5^4-methyl-8,11,14-trioxo-4-oxa-7,10-diaza-1(3,1)-piperidina-5(1,3)-benzenacyclotetradecaphane-12-yl)acetamide]
[1]
  IC50: < 100 nM
hPMBC
  IC50: < 100 nM

## CC(=O)N[C@H]1CC(=O)N2CCCC(CCOc3ccc(C)c(c3)CNC(=O)C(c3cnn(-c4ccccc4)c3)NC1=O)C2 (stereo partly drawn) [Compound 559, N-((12S)-5^4-methyl-8,11,14-trioxo-9-(1-phenyl-1H-pyrazol-4-yl)-4-oxa-7,10-diaza-1(3,1)-piperidina-5(1,3)-benzenacyclotetradecaphane-12-yl)acetamide]
[1]
  IC50: < 100 nM
hPMBC
  IC50: < 100 nM

## COC(=O)N(CC1NC(=O)[C@@H](NC(C)=O)CC(=O)N2CCCC(CCOc3ccc(C)c(c3)CNC1=O)C2)c1ccccc1 (stereo partly drawn) [Compound 560, methyl (((12S)-12-acetamido-5^4-methyl-8,11,14-trioxo-4-oxa-7,10-diaza-1(3,1)-piperidina-5(1,3)-benzenacyclotetradecaphane-9-yl)methyl)(phenyl)carbamate]
[1]
  IC50: < 100 nM
hPMBC
  IC50: < 100 nM
